Assay results reported in US20050037446A1, “Agents that recognize src when phosphorylated at serine 17” (priority 2001, published 2005).
One block for each compound: values may come before it.

How the values were obtained:
[1] = system: Src++ and SYF cells; assay: MTT assay for cell proliferation; format: cell-based, mouse; conditions: for Stimulation of cell growth: SYF cells, 48 hours
Protocol: To determine the effect of Src on cell proliferation, the following protocol was used. Src^++ and SYF cells were serum-starved overnight and plated onto 96 well plates. Cells were then treated with PDGF, EGF, Forskolin, H89, and/or PD98059 (PD, 10 μM, Cal Biochem). Cells were analyzed 48 hours later by MTT assay and data quantified (n=4±S.E.). The MTT assay for cell proliferation was conducted as follows (Schmitt and Stork, Mol. Cell. Biol. 21:3671-83, 2001). Briefly, 2.5 hours prior to lysis, 20 μl of sterile […] MTT (Sigma) was added to the cells and allowed to incubate at 37° C. At the appropriate time, cells were lysed and proteins solubilized in 50% volume/volume H2O and N,N,-dimethylformamide containing 20% SDS, 0.5% of 80% acetic acid, and 0.4% 1M HCL Plates were read using a microplate reader and presented as the difference between optical densities at […].
To quantitate cell proliferation, cells were analyzed 48 hours later by MTT assay (see EXAMPLE 3) and data was quantified (n=4±S.E.). […] Expression of Flag-Src in SYF cells restored Forskolin's ability to inhibit PDGF- and EGF-mediated cell growth.

[2] = system: purified catalytic subunit of PKA; assay: PKA kinase assay on membrane-spotted Src peptides, phospho-PKA substrate antibody; format: biochemical; conditions: 12.5 nM PKA catalytic subunit, 30° C., 30 minutes
Source text: A peptide identical to amino acids 9-25 within the N-terminus of wild-type Src (WT) (KDASQRRRSLEPAENVH; SEQ ID NO: 12), which contains the potential PKA phosphorylation site (underlined), was generated using an Auto-Spot Robot ASP 222 (ABiMED, Langenfeld, Germany) and spotted onto a nitrocellulose membrane. Control peptides with serines 12 and/or 17 replaced by alanine (S12A, SEQ ID NO: 13; S17A, SEQ ID NO: 14; and S12AS17A, SEQ ID NO: 15), serine 17 replaced by aspartate (S17D, SEQ ID NO: 16), and arginines at 14-16 replaced by alanine (R14A, SEQ ID NO: 17; • R15A, SEQ ID NO: 18; R16A, SEQ ID NO: 19), as well as peptides designed to both a scrambled (SEQ ID NO: 20) and an unrelated (FLAG) sequence (SEQ ID NO: 21), were also generated and spotted onto the membrane.
Using a method previously described (Tegge et al., Biochen. 34:10569-77, 1995), the membranes were pre-incubated at room temperature (RT) overnight (ON) in buffer containing 20 mM Hepes, pH 7.4, 100 mM NaCl, 2 mM MgCl2, 1 mM EDTA, 1 mM DTI, and 0.2 mg/ml BSA. Membranes were then blocked at 30° C. for one hour in buffer containing 20 mM Hepes, pH 7.4, 100 mM NaCl, 2 mM MgCl2, 1 mM EDTA, 1 mM DTT, and 1 mg/ml BSA and 30 μM cold ATP. […] The membranes were then blocked, probed, and analyzed using chemiluminescence according the manufacturers guidelines for the phospho-PKA substrate antibody. […]

[3] = system: Src; assay: Src autophosphorylation at tyrosine 416 (Western blot); format: cell-based; conditions: SYF cells
Protocol: To examine the mechanism of cAMP regulation of Src, Src kinase activity was assayed in vivo by monitoring autophosphorylation of Src at tyrosine 416 (Tyr416) using previously disclosed methods (Brown and Cooper, Biochim. Biophys. Acta 1287:121-49, 1996; Martin, Nat. Rev. Mol. Cell. Biol. 2:467-75,2001).
[…] Cell lysates were prepared, and Src immunopreciptiated and analyzed by Western blot for either tyrosine phosphorylation at site 416 (p416Src) using phospho-Src (Tyr416) antibodies (Cell Signaling Technology), Flag-Src, or analyzed by Western blot for either PKA phosphorylation or Src (using Src antibodies, Santa Cruz Biotechnology Inc.), using the methods described above. Alternatively, Flag-Src was immunoprecipitated from the cell lysates and analyzed by Western blot for either Cb1 or Flag-Src.
The activation of wild type Src by Forskolin was confirmed by observing autophosphorylation of Src at Tyr416 and using an in vitro kinase assay. To measure autophosphorylation of Src at Tyr416, SYF cells were transfected with either Flag-Src (WT) or Flag-SrcS17A and treated with Forskolin and PDGF or EGF, as described above. Flag-Src was immunoprecipitated from cell lysates and analyzed by Western blot for either phosphorylation of Src on Tyr416 or the presence of Flag-Src. […]

[4] = system: Rap1; assay: Rap1 activation affinity assay (GST-RalGDS pull-down), NIH3T3 cells; format: cell-based; conditions: NIH3T3 cells, 10 μM, five minutes
Protocol: NIH3T3 cells (American Type Culture Collection, ATCC, Manassas, Va.) were cultured in Dulbecco-Modified Eagle Medium (DMEM) plus 10% fetal calf serum, penicillin/streptomycin, and L-glutamine at 37° C. in 5% CO2. Cells were maintained in serum-free DMEM for 16 hours at 37° C. in 5% CO2 prior to treatment. NIH3T3 cells were trasfected with Flag-Rap1 (see Vossler et al., Cell, 89:73-82, 1997) or stimulated with Forskolin (10 μM, Cal Biochem, Riverside, Calif.) for five minutes. Forskolin treated cells received either a pretreatment or post-treatment with 10 μM N-[2(Bromocimamylamino) ethyl]-5-isoquinolinesulfonamide (H89) (Cal Biochem, Riverside, Calif.) for 20 minutes.
Cells were co-transfected with Flag-Rap1 at seventy to eighty percent confluency with the cDNA using a Lipofectamine 2000 kit (Gibco BRL, Rockville, Md.) according to the manufacturer's instructions. The control vector, pcDNA3 (Invitrogen Corp.), was included in each set of transfections to assure that each plate received the same amount of DNA. Following transfection, cells were allowed to recover in serum containing media for 24 hours. Cells were then starved overnight in serum-free DMEM before treatment and lysis.
After treatment, cells were lysed in ice-cold lysis buffer (50 mM Tris-HCL (pH 8.0), 10% glycerol, 1% nonidet P40, 200 mM NaCl, 2.5 mM MgCl2, 1 mM phenylmethylsulfonyl fluoride, 1 μM leupeptin, 10 μln soybean trypsin inhibitor, 10 mM NaF, 0.1 μM aprotinin, and 1 mM NaVO4). Nuclei and cytoskeleton were removed from equivalent amounts of lysate by centrifugation at 5,000 rpm for five minutes. The supernatant was centrifuged at 100,000×g for one hour at 4° C. and, the resultant membrane was resuspended in cold lysis buffer. Aliquots of the membrane fraction were analyzed for the presence of C3G by Western blotting. The cytosolic or membrane fractions of treated or untreated cells were mixed with equivalent amounts of lysates from untreated Flag-Rap1 transfected cells. The mixture was incubated at 37° C. for five minutes and equal amounts of lysate were analyzed using the Rap1 activation assay to monitor Flag-Rap 1 activation by Gst-RalGDS.
The Rap1 activation affinity assay was performed as follows. A GST fusion protein of the Rap1-binding domain of RalGDS (GST-RalGDS, Dr. Bos, Utrecht University, The Netherlands) was expressed in E. coli following induction by isopropyl-1thio-β-D-galactopyranoside. Active Rap1 was isolated as previously described (Franke et al., EMBO J. 16:252-9, 1997). Briefly, equivalent amounts of supernatants (500 μg) were incubated with GST-RalGDS-Rap1 binding domain coupled to glutathione beads. Following a one hour incubation at 4° C., beads were pelleted and rinsed threes times with ice-cold lysis buffer. […] Proteins were detected using enhanced chemiluminescence.

[5] = system: T1, Src 9-25 control peptide S12A
T1 sequence: KDAAQRRRSLEPAENVH

[6] = system: T2, peptide identical to amino acids 9-25 within the N-terminus of wild-type Src (WT)
T2 sequence: KDASQRRRSLEPAENVH

Compound: COc1cccc(-c2cc(=O)c3ccccc3o2)c1N [PD98059]
- PDGF stimulation of proliferation in presence of MEK inhibitor ([1]; Src++ and SYF cells, 10 μM): dependent on ERK signaling
- Effect on PDGF- and EGF-stimulated SYF cell growth ([1]; transfected SYF cells, pretreatment): blocked

- Recognition by phospho-PKA substrate antibody after PKA kinase assay [2]: recognized
Compound: KDASQRRRSLEPAENVH (listed as Homo sapiens) [WT, peptide identical to amino acids 9-25 of wild-type Src]

- Recognition by phospho-PKA substrate antibody after PKA kinase assay [2]: recognized
Compound: S12A: control Src 9-25 peptide with serine 12 replaced by alanine (KDAAQRRRSLEPAENVH)

Compound: epidermal growth factor [EGF]
- Stimulation of cell growth [1]: stimulated SYF cell growth
- Activation of wild type Src and SrcS17A by growth factor [3]: activated both wild type Src and SrcS17A equally

Compound: platelet-derived growth factor [PDGF]
- Stimulation of cell growth [1]: stimulated SYF cell growth
- Activation of wild type Src and SrcS17A by growth factor [3]: activated both wild type Src and SrcS17A equally

Compound: prostaglandin E [PGE1]
- Activation of endogenous Rap1 [4]: activated Rap1

Compound: purified catalytic subunit of PKA
- phosphorylation of spotted peptide, detected with the phospho-PKA substrate antibody [5]: Only the peptides containing Ser17 and adjacent arginines (WT and S12A) were recognized by the antibody, consistent with the consensus PKA recognition motif.
- phosphorylation of spotted peptide, detected with the phospho-PKA substrate antibody [6]: Only the peptides containing Ser17 and adjacent arginines (WT and S12A) were recognized by the antibody, consistent with the consensus PKA recognition motif.
